Measurements as given in patent US5646188A, “Polyamine derivatives of 1-aminoindan” (priority 1995, dated 1997).

Tests used:
[1] = system: NMDA receptor; settings: cited from earlier work
[2] = system: voltage-sensitive calcium channel; settings: cited from earlier work
[3] = system: ischemia induced nerve cell death; settings: gerbils; Gilad G et al.; cited from earlier work
[4] = system: pyramidal neurons throughout the CA1 layer of the anterior hippocampus; experiment: Global Brain Ischemia In Gerbils; format: in vivo, mongolian gerbils; settings: Meriones unguiculatus, Pyramidal neuron, ip, 336 h, read-out: PERCENT PROTECTION
Procedure: Male mongolian gerbils, aged 2.5-5 months, housed 4-8 in a cage, were supplied freely with food and water and maintained at 24° C. with a 12 hour day/night cycle.
For surgery the animals were anesthetized with halothane (1.5% in 100% O2) and the common carotid arteries exposed bilaterally through a midline ventral neck incision. Each artery was clamped for 5 minutes with aneurysm clips to produce global brain ischemia. The anesthesia was discontinued upon clamping. After 5 minutes the clamps were removed and the wound closed with skin clips.
For treatment, the test compound or vehicle was injected intra-peritoneally(ip) in a volume of 50 microlitres of solvent per 10 g body weight. The first injection was given two minutes after clamp removal, and thereafter daily for the next 2 post-operative days (total of 3 injections).
Seven groups each of 4-8 animals were compared:
I. Control; (sham- or unoperated and saline treated),
II. Vehicle treated, unoperated (when solvent is other than saline),
III. Ischemia--untreated or saline treated),
IV. Ischemia--vehicle treated (when solvent is other than saline),
V. Ischemia--Test compound treated, one sub-group per concentration tested,
VI. Ischemia and pentobarbital (40 mg/kg) as positive control).
Analysis of neuronal damage was performed 14 days post-ischemia by counting pyramidal neurons throughout the CA1 layer of the anterior hippocampus in […] thick (paraffin) coronal brain sections stained with hematoxylin and erosin.
Percent Protection values represent the fraction of hippocampi protected from ischemia in a group of animals treated with the stated dose of compound.

[5] = In Vitro Cell Toxicity; settings: rat, cerebellum cell culture
Procedure: The cerebellum was aseptically dissociated from 6 or 7-day old rat pups and placed in a 15 ml sterile plastic conical tube containing 3 ml of Dulbecco's modified Eagle's medium (DMEM) with a high glucose concentration ([…]) and 2 mM (v/v) L-glutamine and an antibiotic antimitotic mixture. The cerebella were then dissociated after 20-25 passages through a sterile 13 gauge, 10 cm long stainless steel needle attached to a 5 ml syringe with an inserted 45 micrometer pore nylon sieve. The dissociated cells were centrifuged at 200 g for 5 minutes. […] Cell viability was determined by the tryptan blue exclusion test.
Cells were plated at a density of 200/mm^2 on poly-L-lysine coated surfaces. Poly-L-lysine coated glass coverslips were prepared at least one hour in advance of plating by immersing sterile coverslips in sterile distilled water solution containing 15 microgram/ml poly-L-lysine, and washing in sterile water just prior. to use. […] After three days in culture, the media was replaced with media containing the desired test compound. Each test compound was tested in duplicate. Toxic-dose response was determined for each compound over a range from 0.005-1000 micromole. Four groups were run in each set of experiments;
Nerve cell survival was evaluated by phase contrast microscopy and tryptan blue staining after 24 hours.
Toxic dose-response curves were compiled using the protocol described above.

[6] = system: Cultures of Dissociated Neonatal Rat Cerebellum; experiment: Reversal of NMDA Induced Cell Death in cultures of dissociated neonatal rat cerebellum; format: cell-based; settings: positive control, 0.01 micromoles + NMDA; cell survival minus the NMDA effect (30%)
Procedure: The cerebellum was aseptically dissociated from 6 or 7-day old rat pups and placed in a 15 ml sterile plastic conical tube containing 3 ml of Dulbecco's modified Eagle's medium (DMEM) with a high glucose concentration ([…]) and 2 mM (v/v) L-glutamine and an antibiotic antimitotic mixture. The cerebella were then dissociated after 20-25 passages through a sterile 13 gauge, 10 cm long stainless steel needle attached to a 5 ml syringe with an inserted 45 micrometer pore nylon sieve. The dissociated cells were centrifuged at 200 g for 5 minutes.
Cells were plated at a density of 200/mm^2 on poly-L-lysine coated surfaces. […] The plated cells were covered with enriched medium and incubated at 37° C. in an atmosphere of 5% CO2 in air and 97% humidity. […] Each test compound was tested in duplicate. Toxic-dose response was determined for each compound over a range from 0.005-1000 micromole. Four groups were run in each set of experiments;
I. Control, consisting of enriched media alone,
II. N-methyl-D-aspartate (NMDA, 1 mM for 3 hours) as the cytotoxic challenge,
III. Test compound plus NMDA, and
IV. Positive control, spermine, spermidine or putrescine (0.01 micromoles) plus NMDA.
Surviving cells in Culture are measured relative to control (100%) as described above. Percent protection is the Cell Survival for the test compound minus the NMDA effect. […] The Effective Protection was calculated as the percent of the Percent Protection (X) divided by the maximal protection value (e.g. X×100/70).

## N=C(N)NCCCC(N)C(=O)NCCCNCCCN (stereo not drawn) [SFTX-33]
[1]
  EAA antagonism / PCP site of NMDA receptor: EAA antagonists capable of binding at the PCP site on the NMDA receptor
[2]
  voltage-sensitive calcium channel blocking: voltage-sensitive calcium channel blockers

## NCCCNCCCCNCCCN [Spermine, spermine, reference compound]
[3]
  protecting against ischemia induced nerve cell death: activity
[4]
  responders at 10 mg/kg: 60%
[5]
  CC50 at 24 h: 2000 nM
[6]
  PERCENT PROTECTION: 38%
